Columns and labels:
[1] = biological target: serotonin transporter (SERT) (Homo sapiens, UniProt P31645); assay: Comparative serotonin transporter (SERT) inhibition among antipsychotic agents (FIG. 3); type: biochemical; settings: FIG. 3, compared among antipsychotic drugs
[2] = Antidepressant-like behaviors in rodents; type: in vivo
[3] = test system: hippocampal cytokine mRNA (IL-1β, IL-6, TNFα, CCL2, IL-4, IL-10); assay: LPS-induced stress: hippocampal cytokine mRNA by qPCR (FIG. 9, 10); type: in vivo, mice
Method: Male, C57/B16 mice (n=6-12/group) are divided into five groups-control (vehicle/saline), vehicle/LPS, and […] at three different doses of ITI-007. Mice are first injected i.p. with either vehicle (5% DMSO, 5% Tween, 15% PEG, 75% water) or ITI-007 at 0.3 mg/kg, 3.0 mg/kg or 8.0 mg/kg. The mice are then immediately injected s.c. with either 0.9% saline or with 500 μg/kg lipopolysaccharide (LPS) diluted in 0.9% saline. After two hours, the animals are sacrificed, and hippocampal slices are obtained and analyzed for cytokine mRNA using qPCR. The results are shown in FIG. 9, normalized to the control group using the delta ct method. […] The results are shown in FIG. 10, normalized to the control group.

[4] = Safety and tolerability in humans; type: in vivo
[5] = test system: NMDA receptor currents in mPFC pyramidal neurons; assay: NMDA currents in mPFC slices, whole-cell patch clamp (FIG. 4); type: cell-based, rat
[6] = test system: AMPA receptor currents in mPFC pyramidal neurons; assay: AMPA currents in mPFC slices, whole-cell patch clamp (FIG. 5, 6); type: cell-based; settings: bath applied to rat mPFC slices, 3-100 nM, 5 min later
Source text: Combined administration of the antipsychotic, olanzapine, and the SSRI, fluoxetine, similarly induces rapid antidepressant activity in humans and animals (Tohen et al., 2010); likewise, combined application of olanzapine and fluoxetine is required to induce AMPA receptor currents in vitro.

[7] = Symptoms of depression in patients with schizophrenia; type: in vivo, human
[8] = Clinical studies in acute exacerbated schizophrenia: emotional experience symptoms; settings: 60 mg P.O. once daily, up to 28 days; patients with acute exacerbated schizophrenia; two clinical studies
[9] = test system: mTORC1 signaling pathway (AKT Thr308, mTOR Ser2448, P70s6 kinase Thr389); assay: mTOR signaling pathway phosphoprotein levels in prefrontal cortex (FIG. 7, 8); type: in vivo, rat; settings: for mTOR phosphorylation (Serine 2448) / p70s6K phosphorylation (Threonine 389) / phosphorylation of AKT at thr308: rat PFC; for mTOR phosphorylation (Serine 2448) / p70s6K phosphorylation (Threonine 389): lumateperone 3 mg/kg or ketamine 30 mg/kg i.p.; for mTOR phosphorylation (Serine 2448) / phosphorylation of AKT at thr308: 1 hour and 24 hours; for p70s6K phosphorylation (Threonine 389): over the 24 hour period; for phosphorylation of AKT at thr308: one i.p. injection, lumateperone 3 mg/kg or ketamine 30 mg/kg, vs saline
Method: It is known that upstream and downstream effectors of the mTOR (e.g., mTORC1) signaling pathway are increased in the mPFC of rats 1 hour and 24 hours after administration of the rapid-acting antidepressant ketamine.
Pre-frontal cortical phosphorylation levels of AKT (at Threonine 308), mTOR (at Serine 2448) or P70s6 kinase (at Threonine 389) are evaluated after normalization to total protein levels for each target, at both 1 hour and 24 hours. Results are shown as the percent relative change compared to placebo (saline).

[10] = test system: hippocampal gene expression; assay: NanoString Mouse Neuropathology panel, hippocampal mRNA after LPS; type: in vivo, mice; settings: Lumateperone/LPS compared to vehicle/LPS, 3 mg/kg i.p., 2 hours
Method: Immediately after this injection, the mice are injected with either LPS (500 μg/kg diluted in 0.9% saline) or with 0.9% saline. After 2 hours, the mice are sacrificed, and hippocampal mRNA is obtained, as described in Example 1. Hippocampal RNA concentration and integrity are evaluated using an Agilent 2100 Bioanalyzer. Sample preparation, hybridization and detection are carried out according to NanoString manufacturer's instructions (NanoString technologies, WA). RNA (100 ng) expression profiling is performed using the nCounter NanoString Mouse Neuropathology panel, and data are analyzed using the nSolver software to produce and compare direct counts of mRNA. […] The neuropathology panel was developed to include genes of relevance for research in models of neurodegenerative and neurological disorders, such as Alzheimer's disease, Parkinson's disease, Amyotrophic Lateral Sclerosis, Frontotemporal Dementia, and Huntington's disease. The panel includes 770 genes associated with themes of neurotransmission, neuron-glia interaction, neuroplasticity, cell structure integrity, neuroinflammation and metabolism

[11] = test system: mTORC1 signaling pathway (AKT Thr308, mTOR Ser2448, P70s6 kinase Thr389); assay: mTOR signaling pathway phosphoprotein levels in prefrontal cortex (FIG. 7, 8); type: in vivo, rat; settings: adult rats; lumateperone 1 to 8 mg/kg i.p., ketamine 30 mg/kg; 60 min, 90 min or 24 hours
[12] = test system: serum cytokines (IL-1β, IL-6, TNF, IL-10, IFN-gamma); assay: Restraint stress: serum cytokines by MSD multiplex (FIG. 2); type: in vivo, mice; settings: pre-treatment 3 mg/kg i.p., 2 h restraint stress
Method: (§1) Male, C57/B16 mice (n=6-7/group) are divided into three groups—control (vehicle alone, no stress), vehicle—stress (vehicle, i.p.), or ITI-007—stress (3 mg/kg, i.p. in vehicle). For induction of stress, mice are placed in a plastic “decapicones” and placed on the bottom of a warm, clean rodent cage for a 2 h period. These plastic “decapicones” produce an acute restraint stress which triggers neuroinflammation in both hippocampal tissue and peripherally (as shown by serum). At the end of the stress exposure, mice are killed; blood is taken for serum preparation and brain tissue for analysis. Serum is prepared from blood; cytokine measures are performed using MSD multiplex analysis. Brain tissue is analyzed by qPCR for pro-inflammatory cytokine mRNA expression.

[13] = test system: hippocampal pro- and anti-inflammatory cytokine expression; assay: Restraint stress: hippocampal cytokine expression by qPCR (FIG. 1); type: in vivo, mice; settings: 3 mg/kg i.p., 2 h restraint stress, not statistically significant
Method: as §1

[14] = test system: phosphor-mTOR; settings: single antidepressant-effective dose; prefrontal cortex and hippocampus of mice and rats; cited from earlier work
[15] = cited from earlier work
[16] = 0.3, 3.0 or 8.0 mg/kg i.p., co-injection with LPS 500 μg/kg s.c., 2 hours, FIG. 9

serotonin transporter (SERT), sequence (P31645 whole entry, species assumed): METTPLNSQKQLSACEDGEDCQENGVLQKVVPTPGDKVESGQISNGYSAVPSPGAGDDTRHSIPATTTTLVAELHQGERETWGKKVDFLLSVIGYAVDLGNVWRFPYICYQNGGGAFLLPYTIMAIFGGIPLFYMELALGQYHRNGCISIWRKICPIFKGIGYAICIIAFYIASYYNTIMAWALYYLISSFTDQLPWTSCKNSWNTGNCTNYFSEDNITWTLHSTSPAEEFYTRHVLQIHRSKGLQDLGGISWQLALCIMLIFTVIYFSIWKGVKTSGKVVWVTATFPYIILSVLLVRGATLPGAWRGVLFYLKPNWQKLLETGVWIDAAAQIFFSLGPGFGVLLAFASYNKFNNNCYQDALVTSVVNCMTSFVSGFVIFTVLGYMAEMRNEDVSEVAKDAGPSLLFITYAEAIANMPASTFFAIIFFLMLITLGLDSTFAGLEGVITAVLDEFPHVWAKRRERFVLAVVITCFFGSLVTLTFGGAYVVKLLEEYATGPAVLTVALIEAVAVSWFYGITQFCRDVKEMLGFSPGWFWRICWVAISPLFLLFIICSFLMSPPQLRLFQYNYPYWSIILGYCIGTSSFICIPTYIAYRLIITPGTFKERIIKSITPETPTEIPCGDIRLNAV

CN1CCN2c3c(cccc31)[C@@H]1CN(CCCC(O)c3ccc(F)cc3)CC[C@@H]12 (stereo partly drawn) [IC200131]
SERT inhibition [1]: high SERT inhibition
antidepressant-like behaviors [2]: elicit antidepressant-like behaviors

CN1CCN2c3c(cccc31)[C@@H]1CN(CCCC(=O)c3ccc(F)cc3)CC[C@@H]12 [Lumateperone, 4-((6bR,10aS)-3-methyl-2,3,6b,9,10,10a-hexahydro-1H-pyrido[3′,4′:4,5]pyrrolo[1,2,3-de]quinoxalin-8(7H)-yl)-1-(4-fluorophenyl)-1-butanone]
hippocampal inflammatory cytokine production, delayed dosing ([3]; 3.0 mg/kg, given 30 minutes after LPS, FIG. 10): suppresses inflammatory cytokine production
hippocampal anti-inflammatory cytokine mRNA (IL-4, IL-10) [3, 16]: significantly enhanced
hippocampal pro-inflammatory cytokine mRNA (IL-1β, IL-6, TNFα, CCL2) [3, 16]: significantly attenuated
safety and tolerability [4]: safe and well-tolerated
NMDA currents ([5]; bath applied to rat mPFC slices, 3-100 nM, 5 min later): enhanced
effect on NMDA and AMPA currents in the presence of the D1 receptor antagonist SCH-23390 ([5]; lumateperone 30 nM, SCH-23390 1 μM): fully blocked
AMPA currents [6]: enhanced
SERT inhibition [1]: very high SERT inhibition
symptoms of depression [7]: improves symptoms of depression
symptoms of emotional experience compared to placebo [8]: significant and unexpected improvement
duration of effect on phospho-protein levels at 24 hours ([9]; compared with ketamine 30 mg/kg): longer lasting effect compared with ketamine
AKT thr308 phosphorylation effect at 24 hours versus ketamine ([9]; lumateperone 3 mg/kg vs ketamine 30 mg/kg i.p., not declining in intensity (FIG. 8)): stronger at 24 hours than for ketamine
mTOR phosphorylation (Serine 2448) [9]: Neither ketamine nor lumateperone results in a change
p70s6K phosphorylation (Threonine 389) [9]: progressively increases
phosphorylation of AKT at thr308 [9]: increase phosphorylation
Linear Change, down-regulated genes: Ctns, Jun, Polr2l, Usp21, Csf1, Sirt1, Atf4, Fclrls [10]: 0.80-0.85 fold
Linear Change, down-regulated genes: Hc, Osmr [10]: <0.500-fold
Linear Change, down-regulated genes: Nfe2l2, Naglu, Pla2g4b, Npas4, Nos3 [10]: 0.75-0.80-fold
Linear Change, down-regulated genes: Ptgs2, Cp, Cntf, Tnfrsf1a, Il1R1 [10]: 0.5-0.75-fold
Linear Change, up-regulated gene: Cldn5 [10]: >1.5 fold
Linear Change, up-regulated genes: Egr1, Gata2, Olig2 [10]: 1.25-1.5 fold
Linear Change, up-regulated genes: Phf21a, Islr2, Ngf, Arrb2, Homer1, Notch1, Rapgef2, Pde4d [10]: 1.1-1.25 fold
Linear Change, up-regulated genes: Syt4, Adcy9, Gabrb2, Slc8a1, Inppf5, Scn1a, Pten, Crebbp [10]: 1.0-1.1 fold
antidepressant-like behaviors [2]: elicit antidepressant-like behaviors
activation of the mTORC1 signaling pathway in mPFC (p-Akt thr308, p-P70S6K) [11]: rapidly activates
stress effects on serum IL-1ρ and IL-6 [12]: significantly attenuates
stress effects on serum TNF and IL-10 [12]: trends, but not statistically significant
hippocampal CCL2 and IL-10 levels [13]: elevated
hippocampal expression of pro-inflammatory cytokines by qPCR [13]: generally depressed

CNC1(c2ccccc2Cl)CCCCC1=O (stereo not drawn) [ketamine, reference compound]
onset of induction of phosphor-mTOR after administration [14]: ≤ 30 min
mTOR phosphorylation (Serine 2448) [9]: Neither ketamine nor lumateperone results in a change
p70s6K phosphorylation (Threonine 389) [9]: transiently increase
phosphorylation of AKT at thr308 [9]: increase phosphorylation
activation of the mTORC1 signaling pathway in mPFC (p-Akt thr308, p-P70S6K) [11]: rapidly activates
ratings on the Hamilton Depression Rating Scale (HDRS) compared to placebo ([15]; 40-minute infusion, total dose 0.5 mg/kg, after 24 hours, Berman et al.): significantly improved ratings
onset of effects after intravenous infusion ([15]; intravenous infusion): ~4 h
persistence of effects ([15]; intravenous infusion): up to 2 weeks
